The subject of test [1] is Staphylococcus aureus. The experiment in a line: Synergistic antibacterial activity against Staphylococcus aureus 1199B overexpressing NorA efflux protein assessed as fractional inhibitory concentration index in presence of norfloxacin by checkerboard assay. The format is functional.
Test [2] relates to Staphylococcus aureus. The test can be described thus: Antibacterial activity against Staphylococcus aureus 1199B overexpressing NorA efflux protein assessed as bacterial growth inhibition. The format is functional.
Test [3] relates to Staphylococcus aureus. The test can be described thus: Synergistic antibacterial activity against Staphylococcus aureus 1199B overexpressing NorA efflux protein assessed as fractional inhibitory concentration index in presence of chloramphenicol by checkerboard assay. The format is functional.
In test [4] the test system is Staphylococcus aureus. The test can be described thus: Antibacterial activity against Staphylococcus aureus K1758 with NorA deletion mutant assessed as bacterial growth inhibition. The format is functional.
In test [5] the test system is Staphylococcus aureus. The test can be described thus: Synergistic antibacterial activity against Staphylococcus aureus 1199B overexpressing NorA efflux protein assessed as fractional inhibitory concentration index in presence of moxifloxacin by checkerboard assay. The format is functional.
Test [6] concerns Staphylococcus aureus. The experiment in a line: Synergistic antibacterial activity against Staphylococcus aureus 1199B overexpressing NorA efflux protein assessed as fractional inhibitory concentration index in presence of ciprofloxacin by checkerboard assay. The format is functional.
In another test the test system is LS180. The test can be described thus: Cytotoxicity against human LS180 cells. The format is functional, cell-based.
The target in test [7] is ATP-dependent translocase ABCB1 (Homo sapiens, UniProt P08183). The test can be described thus: Inhibition of P-gp mediated efflux in human LS180 cells using digoxin as substrate incubated for 90 mins by fluorescence assay. The format is cell-based.
The subject of test [8] is Staphylococcus aureus. The experiment in a line: Antibacterial activity against Staphylococcus aureus K1758 with NorA knockout assessed as bacterial growth inhibition incubated for 18 hrs by broth dilution method. The format is functional.
The test system of test [9] is Staphylococcus aureus. The test can be described thus: Synergistic antibacterial activity against Staphylococcus aureus 1199B overexpressing NorA efflux pump assessed as fractional inhibitory concentration index in presence of norfloxacin incubated for 18 hrs by checkerboard assay. The format is functional.
For test [10], the system named is Staphylococcus aureus. The test can be described thus: Synergistic antibacterial activity against Staphylococcus aureus 1199B overexpressing NorA efflux pump assessed as fractional inhibitory concentration index in presence of ciprofloxacin incubated for 18 hrs by checkerboard assay. The format is functional.
Test [11] has as its target T1, Quinolone resistance protein NorA (Staphylococcus aureus) (UniProt P0A0J7).
T1 sequence (whole entry): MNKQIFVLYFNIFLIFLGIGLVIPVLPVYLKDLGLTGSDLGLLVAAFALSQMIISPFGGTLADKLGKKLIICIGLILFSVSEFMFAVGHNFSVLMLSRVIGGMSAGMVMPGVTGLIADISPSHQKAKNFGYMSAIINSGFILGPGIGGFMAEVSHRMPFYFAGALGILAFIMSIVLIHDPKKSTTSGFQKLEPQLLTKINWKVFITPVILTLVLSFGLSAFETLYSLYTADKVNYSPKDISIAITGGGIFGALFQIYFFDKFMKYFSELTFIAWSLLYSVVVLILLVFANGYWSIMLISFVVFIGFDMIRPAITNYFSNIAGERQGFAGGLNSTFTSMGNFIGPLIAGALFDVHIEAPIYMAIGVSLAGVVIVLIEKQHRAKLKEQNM
The experiment in a line: Inhibition of NorA efflux pump in Staphylococcus aureus 1199B overexpressing NorA efflux pump assessed as decrease in norfloxacin MIC at 1/4 times MIC and measured for 45 mins in presence of norfloxacin by fluorimetric analysis (Rvb=32 ug/ml).

For test [12], the system named is Staphylococcus aureus. The experiment in a line: Antibacterial activity against Staphylococcus aureus 1199B overexpressing NorA efflux pump assessed as bacterial growth inhibition incubated for 18 hrs by broth dilution method. The format is functional. A general note: Broth dilution looks for growth in wells or tubes with falling amounts of substance.
Test [13] deals with T1, Quinolone resistance protein NorA (Staphylococcus aureus). The test can be described thus: Inhibition of NorA efflux pump in Staphylococcus aureus 1199B overexpressing NorA efflux pump assessed as decrease in ciprofloxacin MIC at 1/4 times MIC and measured for 45 mins in presence of ciprofloxacin by fluorimetric analysis (Rvb=8 ug/ml).
For test [14], the system named is Staphylococcus aureus. The test can be described thus: Synergistic antibacterial activity against methicillin-susceptible Staphylococcus aureus 1199B overexpressing NorA efflux pump assessed as fractional inhibitory concentration index at 64 ug/ml incubated for 18 to 24 hrs in presence of norfloxacin by checkerboard microdilution assay. The format is functional. The settings on record: dose 64 µg/ml; time 18-24 hrs.

Test [15] deals with Staphylococcus aureus. The experiment in a line: Synergistic antibacterial activity against methicillin-susceptible Staphylococcus aureus 1199B overexpressing NorA efflux pump assessed as reduction in norfloxacin MIC at 64 ug/ml incubated for 18 to 24 hrs in presence of norfloxacin by MTT assay. The format is functional. The settings on record: dose 64 µg/ml, time 18-24 hrs.

Test [16] has as its system Staphylococcus aureus. The experiment in a line: Antibacterial activity against Staphylococcus aureus IS-58 expressing TetK efflux protein assessed as bacterial growth inhibition incubated for 24 hrs by resazurin based microdilution assay. The format is functional. For orientation: Resazurin is reduced to fluorescent resorufin, in cell work by metabolically active cells.

Test [17] deals with Staphylococcus aureus. The experiment in a line: Antibacterial activity against wild type Staphylococcus aureus 1199 assessed as bacterial growth inhibition incubated for 24 hrs by resazurin based microdilution assay. The format is functional.
Test [18] concerns Staphylococcus aureus. The test can be described thus: Antibacterial activity against Staphylococcus aureus 1199B expressing NorA efflux protein assessed as bacterial growth inhibition incubated for 24 hrs by resazurin based microdilution assay. The format is functional.
In test [19] the test system is Staphylococcus aureus. The experiment in a line: Antibacterial activity against Staphylococcus aureus RN4220 expressing MsrA efflux protein assessed as bacterial growth inhibition incubated for 24 hrs by resazurin based microdilution assay. The format is functional.
Test [20] has as its system Staphylococcus haemolyticus. The test can be described thus: Antibacterial activity against Staphylococcus haemolyticus assessed as bacterial growth inhibition by microdilution assay. The format is functional.
Another test relates to WI-38. The test can be described thus: Cytotoxicity against human WI-38 cells assessed as reduction in cell viability by sulforhodamine B assay. The format is functional, cell-based. On the technique in general: The SRB assay estimates cell density from bound dye.
The target of test [21] is UDP-N-acetylmuramoyl-L-alanyl-D-glutamate--2,6-diaminopimelate ligase (Mycobacterium tuberculosis (strain ATCC 25618 / H37Rv), UniProt P9WJL3). The experiment in a line: Inhibition of MurE ligase activity in Mycobacterium tuberculosis assessed as release of inorganic phosphate by hydrolysis of ATP using UDP-MurNAc-l-Ala-d-Glu as substrate in presence of ATP incubated for 30 mins by absorbance assay.

The test system of the next test is A549. The experiment in a line: Cytotoxicity against human A549 cells assessed as reduction in cell viability by sulforhodamine B assay. The format is functional, cell-based.
The test system of another test is MCF7. The test can be described thus: Cytotoxicity against human MCF7 cells assessed as reduction in cell viability by sulforhodamine B assay. The format is functional, cell-based.
Test [22] deals with Staphylococcus haemolyticus. The test can be described thus: Antibacterial activity against Staphylococcus haemolyticus grown in blood assessed as bacterial growth inhibition by microdilution assay. The format is functional.
Test [23] relates to Staphylococcus aureus. The test can be described thus: Antibacterial activity against wild type Staphylococcus aureus 1199 assessed as bacterial growth inhibition incubated for 24 hrs by microdilution method. The format is functional.
The subject of test [24] is Staphylococcus aureus. The test can be described thus: Antibacterial activity against Staphylococcus aureus 1199B overexpressing NorA efflux protein assessed as bacterial growth inhibition incubated for 24 hrs by microdilution method. The format is functional.

In brackets after ≈: the same amount, converted by molar mass.

Turning to `Nc1ccccc1-c1cc2ccccc2[nH]1`, the “fractional inhibitory concentration index (FICI)” value in the test on Staphylococcus aureus [1], in the test with Staphylococcus aureus [3], in the test with Staphylococcus aureus [5] and in the test on Staphylococcus aureus [6] was “>=0.5” each time. Also, the MIC in the test with Staphylococcus aureus [2] amounted to 128 µg/mL (≈ 615 µM); with Staphylococcus aureus [4], 64 µg/mL (≈ 307 µM).
Regarding `CC(=O)c1c(-c2ccc(F)cc2)cn(-c2ccc(C)cc2)c1C`, the IC50 (in general, the concentration needed to halve the response being measured) in the test on LS180 was above 100 µM; in test [7] it was 11.2 µM.
As for `COc1cc(/C=C/C(=O)N/N=C/c2ccc[nH]2)cc(OC)c1OC`, the MIC amounted to 64 µg/mL (≈ 194 µM) in the test on Staphylococcus aureus [8], 1 µg/mL in test [11], 64 µg/mL (≈ 194 µM) in the test with Staphylococcus aureus [12] and 0.5 µg/mL in [13]. The “fractional inhibitory concentration index (FICI)” value with Staphylococcus aureus [9] and in the test on Staphylococcus aureus [10] was 0.56 throughout.
Turning to `COc1cc2c(cc1O)CC[n+]1cc3c(OC)c(OC)ccc3cc1-2` [JATRORRHIZINE], the “fractional inhibitory concentration index (FICI)” value in the test with Staphylococcus aureus [14] was determined as 0.375. For the same molecule, the MIC with Staphylococcus aureus [15] was determined as 16 µg/mL.
For the molecule `CC1=CC(=O)c2ccccc2C1=O` [MENADIONE], the MIC in the test with Staphylococcus aureus [16], in the test on Staphylococcus aureus [17], in the test with Staphylococcus aureus [18] and in the test with Staphylococcus aureus [19] was 64 µg/mL (≈ 372 µM) each time.
Consider `CC[C@H](C)C(=O)c1c(O)cc(O)cc1OC/C=C(\C)CCC=C(C)C` [OLYMPICIN A], for which the MIC in test [20] is at least 16 µg/mL; in test [22], above 32 µg/mL. The concentration for half-maximal inhibition (IC50) came to 8.9 µM in the test with WI-38, 75 µM in [21], 10.5 µM with A549 and 12.5 µM in the test on MCF7.
Regarding `O=C(OC[C@H]1O[C@@H](OC(=O)c2cc(O)c(O)c(OC(=O)c3cc(O)c(O)c(O)c3)c2)[C@H](OC(=O)c2cc(O)c(O)c(OC(=O)c3cc(O)c(O)c(O)c3)c2)[C@@H](OC(=O)c2cc(O)c(O)c(OC(=O)c3cc(O)c(O)c(O)c3)c2)[C@@H]1OC(=O)c1cc(O)c(O)c(OC(=O)c2cc(O)c(O)c(O)c2)c1)c1cc(O)c(O)c(OC(=O)c2cc(O)c(O)c(O)c2)c1` [TANNIC ACID], the MIC in the test on Staphylococcus aureus [23] and in the test on Staphylococcus aureus [24] was at least 1020 µg/mL in each case.
